In patent publication US20150232900A1, “PAPER FOLDING METHOD AND DEVICE FOR MANUFACTURING FILTER CARTRIDGES” (MYKO TECH PRIVATE LIMITED, priority 2012, published 2015):

Assays:
Type in all cases: cell-based
Human Adenovirus 5 = experiment: Plaque forming unit (PFU) inhibition assay, Human Adenovirus 5 in A549 cell line; details: Human Adenovirus 5, A549 cells, positive control, tested 0.33-100 μM; not at less
Method: EPS from two thraustochytrids, designated MT-5 and MT-6 were tested for inhibition of Adenovirus. A stock solution of 20 mg/ml of the EPS was prepared by solubilizing in 10% DMSO for injection into the cell lines infected by the virus. Various dilutions of the stock EPS were prepared in the tissue culture medium, Dulbecco ? Modified Eagle medium with 2% fetal bovine serum and antibiotics. The dilutions were: (1) 100 μg/ml; (2) 33 μg/ml; (3) 10 μg/ml; (4) 3.3 μg/ml; (5) 1.0 μg/ml; (6) 0.33 μg/ml. A plaque forming unit (PFU) inhibition assay in 6-well plates in vitro was carried out. A known concentration of cells from A549 cell line was used to seed 6-well or 12-well plates for 24 hours. Each of the 6 different concentrations of the EPS was then added to duplicate wells and incubated for 1 hour and then approximately 50-100 plaque forming units of Human Adenovirus 5 in 10 ? were added to each well. Virus was allowed to absorb to the cells for 2 hours. After the incubation the virus was removed and agarose solution with EPS at each different was added to the appropriate infected well. Plates were incubated in a 37° C. CO2 incubator for 5 days. The drug Cidofovir was kept as a positive control, at concentrations of 100, 33, 10, 3.3, 1.0 and 0.33 μM concentrations. […] Plaques were counted and numbers recorded. […]

[1] = tested on: Human Cytomegalovirus AD-169; experiment: Plaque forming unit (PFU) inhibition assay, Human Cytomegalovirus AD-169 in MRC5 cell line; details: Human Cytomegalovirus AD-169, MRC5 cells, positive control, tested 0.33-100 μM
Method: EPS from the thraustochytrid designated MT-5 were tested for inhibition of Cytomegalovirus. A stock solution of 20 mg/ml of the EPS was prepared by solubilizing in 10% DMSO for injection into the cell lines infected by the virus.
Various dilutions of the stock EPS were prepared in the tissue culture medium, Dulbecco ? Modified Eagle medium with 2% fetal bovine serum and antibiotics. The dilutions were: (1) 100 ? /ml; (2) 33 ? /ml; (3) 10 ? /ml; (4) 3.3 μg/ml; (5) 1.0 ? /ml; (6) 0.33 μg/ml. A plaque forming unit (PFU) inhibition assay in 6-well plates in vitro was carried out. A known concentration of cells from MRC5 cell line was used to seed 6-well or 12-well plates for 24 hours. Each of the 6 different concentrations of the EPS was then added to duplicate wells and incubated for 1 hour and then approximately 50-100 plaque forming units of the Human Cytomegalovirus AD-169 in 10 ? were added to each well. Virus was allowed to absorb to the cells for 2 hours. After the incubation the virus was removed and agarose solution with EPS at each different was added to the appropriate infected well. Plates were incubated in a 37° C. CO2 incubator for 5 days. The drug Acyclovir was kept as a positive control, at concentrations of 100, 33, 10, 3.3, 1.0 and 0.33 μM concentrations. […] Plaques were counted and numbers recorded. […]

[2] = tested on: Retrovirus XMRV (Xenotropic Murine Leukemia Virus); experiment: Focus forming unit (FFU) inhibition assay, Retrovirus XMRV in PG4 cell line; details: PG4 cells, positive control, tested 0.33-100 μM
Method: EPS from two thraustochytrids designated MT-5 and MT-6 were tested for inhibition of retrovirus A stock solution of 20 mg/ml of the EPS was prepared by solubilizing in 10% DMSO for injection into the cell lines infected by the virus. Various dilutions of the stock EPS were prepared in the tissue culture medium, Dulbecco ? Modified Eagle medium with 2% fetal bovine serum and antibiotics. The dilutions were: (1) 100 ? /ml; (2) 33 ? /ml; 10 ? /ml; (4) 3.3 μg/ml; (5) 1.0 μg/ml; (6) 0.33 μg/ml. A focus forming unit (FFU) inhibition assay in 6-well plates in vitro was carried out. A known concentration of cells from PG4 cell line was used to seed 6-well or 12-well plates for 24 hours. Each of the 6 different concentrations of the EPS was then added to duplicate wells and incubated for 1 hour and then approximately 50-100 focus forming units of the Retrovirus XMRV (Xenotropic Murine Leukemia Virus) in 10 ? were added to each well. Virus was allowed to absorb to the cells for 2 hours. After the incubation the virus was removed and agarose solution with EPS at each different was added to the appropriate infected well Plates were incubated in a 37° C. CO2 incubator for 5 days. The drug Tenofovir was kept as a positive control, at concentrations of 100, 33, 10, 3.3, 1.0 and 0.33 μM concentrations. At the end of incubation, cultures were fixed and stained with crystal violet to visualize the foci. […]

For Nc1ccn(C[C@@H](CO)OCP(=O)(O)O)c(=O)n1 [Cidofovir], the “concentration that completely inhibited plaque formation” value (Human Adenovirus 5) was 100 µM.

Nc1nc2c(ncn2COCCO)c(=O)[nH]1 [Acyclovir] was tested, and the “effective concentration (not effective at any concentration tested, up to the maximum)” value [1] was over 100.0 µM.

C[C@H](Cn1cnc2c(N)ncnc21)OCP(=O)(O)O [Tenofovir] was tested, and the “concentration above which the drug was effective (viral foci)” value [2] was over 10.0 µM and the “concentration that completely inhibited focal formation” value [2] was 100 µM.
